In one test the test system is MGC-803. Kind of test: Antiproliferative activity against human MGC803 cells by MTT assay. In kind it is functional, cell-based.
For test [1], the system named is HepG2. The experiment in a line: Antiproliferative activity against human HepG2 cells by MTT assay. In kind it is functional, cell-based.
Another test deals with SK-N-SH. Kind of test: Antiproliferative activity against human SK-N-SH cells by MTT assay. Type of test: functional, cell-based.
The test system of another test is Caco-2. Kind of test: Antiproliferative activity against human Caco2 cells assessed as reduction in cell viability after 72 hrs by MTT assay. Type of test: functional, cell-based. Conditions: Caco-2, 72 h.
Another test concerns K562. The experiment in a line: Antiproliferative activity against human K562 cells assessed as reduction in cell viability after 72 hrs by MTT assay. In kind it is functional, cell-based. Conditions: K562, 72 h.
The nature of test [2]: Cytotoxicity against dog MDCK1 cells assessed as reduction in cell viability after 72 hrs by MTT assay. Type of test: cell-based. The note with it: Canis lupus familiaris, MDCK1, 72 h.
The test system of test [3] is HeLa. Kind of test: Antiproliferative activity against human HeLa cells assessed as reduction in cell viability after 72 hrs by MTT assay. Type of test: functional, cell-based.
The test system of a further test is HL-60. The experiment in a line: Antiproliferative activity against human HL60 cells assessed as reduction in cell viability after 48 hrs by MTT assay. In kind it is functional, cell-based. Conditions: HL-60, 48 h.
Another test relates to SW480. Kind of test: Antiproliferative activity against human SW480 cells assessed as reduction in cell viability after 48 hrs by MTT assay. Type of test: functional, cell-based. The note with it: SW480, 48 h.
The subject of test [4] is A549. The experiment in a line: Antiproliferative activity against human A549 cells assessed as reduction in cell viability after 48 hrs by MTT assay. In kind it is functional, cell-based. The note with it: A549, 48 h.
The nature of test [5]: Antiproliferative activity against human SMCC7721 cells assessed as reduction in cell viability after 48 hrs by MTT assay. Type of test: functional, cell-based.
Test [6] has as its system MCF7. The experiment in a line: Antiproliferative activity against human MCF7 cells assessed as reduction in cell viability after 48 hrs by MTT assay. In kind it is functional, cell-based. Conditions: MCF7, 48 h.
Test [7] has as its system MDA-MB-231. Kind of test: Antiproliferative activity against human MDA-MB-231 cells assessed as reduction in cell viability after 48 hrs by MTT assay. In kind it is functional, cell-based. Conditions: MDA-MB-231, 48 h.
Test [8] has as its system HeLa. Kind of test: Antiproliferative activity against human HeLa cells assessed as reduction in cell viability after 48 hrs by MTT assay. In kind it is functional, cell-based.
In a further test the test system is KG-1a. The experiment in a line: Antiproliferative activity against human KG1a cells assessed as reduction in cell viability after 72 hrs by MTT assay. In kind it is functional, cell-based.
Another test has as its system SK-BR-3. Kind of test: Antiproliferative activity against human SKBR3 cells assessed as reduction in cell viability after 72 hrs by MTT assay. Type of test: functional, cell-based. Conditions: SK-BR-3, 72 h.
The next test relates to SUM-159-PT. Kind of test: Antiproliferative activity against human SUM159 cells assessed as reduction in cell viability after 72 hrs by MTT assay. In kind it is functional, cell-based.
A further test relates to HCT-116. Kind of test: Antiproliferative activity against human HCT116 cells assessed as reduction in cell viability after 48 hrs by MTT assay. Type of test: functional, cell-based. Conditions: HCT-116, 48 h.
The subject of the next test is HEK293. The experiment in a line: Cytotoxicity against HEK293 cells assessed as reduction in cell viability after 48 hrs by MTT assay. In kind it is cell-based. The note with it: Homo sapiens, HEK293, 48 h.
Test [9] concerns DU-145. Kind of test: Antiproliferative activity against human DU145 cells assessed as reduction in cell viability after 48 hrs by MTT assay. The note with it: DU-145, 48 h. Type of test: functional, cell-based.
Another test has as its system T47D. Kind of test: Antiproliferative activity against human T47D cells assessed as reduction in cell viability after 72 hrs by MTT assay. In kind it is functional, cell-based.
Test [10] concerns MCF7. The experiment in a line: Antiproliferative activity against human MCF7 cells assessed as reduction in cell viability after 72 hrs by MTT assay. Type of test: functional, cell-based. The note with it: MCF7, 72 h.
Test [11] relates to HeLa. The experiment in a line: Antiproliferative activity against human HeLa cells by SRB assay. In kind it is functional, cell-based.
Test [12] concerns A549. The experiment in a line: Antiproliferative activity against human A549 cells by SRB assay. In kind it is functional, cell-based.
In test [13] the test system is DU-145. Kind of test: Antiproliferative activity against human DU145 cells by SRB assay. Type of test: functional, cell-based.
The subject of test [14] is HepG2. Kind of test: Antiproliferative activity against human HepG2 cells by SRB assay. Type of test: functional, cell-based.
The subject of the next test is C2C12. The experiment in a line: Cytotoxicity against mouse C2C12 cells assessed as reduction in cell viability after 48 hrs by MTT assay. Type of test: cell-based. Conditions: C2C12, 48 h.
A further test has as its system HT-29. The experiment in a line: Antiproliferative activity against human HT-29 cells assessed as reduction in cell viability after 48 hrs by MTT assay. In kind it is functional, cell-based. Conditions: HT-29, 48 h.
Test [15] concerns MDA-MB-231. The experiment in a line: Antiproliferative activity against human MDA-MB-231 cells by SRB assay. Type of test: functional.

The results in this text go back to ChEMBL document CHEMBL4342418, “1,2,3-Triazole-containing hybrids as potential anticancer agents: Current developments, action mechanisms and structure-activity relationships” (Eur J Med Chem, 2019).

Molecules are shown by their SMILES. pIC50: −log10 of the molar value. In brackets after ≈: the same amount, converted by molar mass. Where only a bound is given, the exact number is not on record here.

For `COc1cc(/C=C/C(=O)c2ccc(OCCCn3cc(CSc4nnnn4C)nn3)cc2)cc(OC)c1OC`, the pIC50 with MGC-803, in the test on HepG2 [1] and in the test with SK-N-SH was 4.98 to 5.82 each time.

For the molecule `O=c1cc(Cn2cc(-c3ccccc3)nn2)c2cc(O)c(O)cc2o1`, the pIC50 in the test on Caco-2 is 4.09 to 5.01; in the test with K562 it was 4.09 to 5.01; in test [2], 4.34 to 4.44; in the test on HeLa [3], 4.09 to 5.01.

`COc1cc([C@@H]2c3cc4c(cc3[C@H](n3cc(COCC(COCc5cn([C@H]6c7cc8c(cc7[C@@H](c7cc(OC)c(O)c(OC)c7)[C@H]7C(=O)OC[C@@H]76)OCO8)nn5)O[C@@H]5O[C@H](COC(C)=O)[C@@H](OC(C)=O)[C@H](OC(C)=O)[C@H]5OC(C)=O)nn3)[C@H]3COC(=O)[C@H]23)OCO4)cc(OC)c1O` (some centres undefined): the pIC50 (in the test on HL-60; in the test on SW480; in the test on A549 [4]; in [5]) was 4.52 to 6.37 in each case.

Take `N#CC1=C(N)Oc2ccccc2C12C(=O)N(Cc1cn(CCCCBr)nn1)c1ccccc12` (centres undefined): the pIC50 in the test with MCF7 [6], in the test on MDA-MB-231 [7] and in the test on HeLa [8] was 5.04 to 5.32 each time.

For the molecule `CCCC(=O)OC[C@H]1O[C@@H](OC(COCc2cn([C@H]3c4cc5c(cc4[C@@H](c4cc(OC)c(O)c(OC)c4)[C@H]4C(=O)OC[C@@H]43)OCO5)nn2)COCc2cn([C@H]3c4cc5c(cc4[C@@H](c4cc(OC)c(O)c(OC)c4)[C@H]4C(=O)OC[C@@H]43)OCO5)nn2)[C@H](OC(=O)CCC)[C@@H](OC(=O)CCC)[C@@H]1OC(=O)CCC` (some centres undefined), the pIC50 (with HL-60; in the test with SW480; with A549 [4]; in test [5]) was 4.52 to 6.37 throughout.

Consider `Fc1cccc(COc2ccc(Nc3ncnc4ccc(-n5cc(CNC6CCN(Cc7cccnc7)CC6)nn5)cc34)cc2Cl)c1`, for which the pIC50 in the test with KG-1a, with SK-BR-3 and in the test on SUM-159-PT was 5.13 to 5.69 each time.

As to `O=C(c1cn(Cc2ccc(-c3ccc(Cl)cc3)cc2)nn1)c1c(-c2ccccc2)nc2ccccn12`, the pIC50 is 5.40 to 6.29 in the test on HCT-116; 5.40 to 6.29 with MDA-MB-231 [7]; 4.04 in the test on HEK293; 5.40 to 6.29 with A549 [4]; 5.40 to 6.29 in the test on DU-145 [9].

Regarding `COc1ccc(Cn2cc(CNC(=O)c3cc(-c4ccccc4)on3)nn2)cc1`, the GI50 in the test with T47D and in the test on MCF7 [10] was 27.7 to 85.7 µg/mL (≈ 71.1 to 220 µM) each time.

As for `COc1ccccc1-c1cn(Cc2cc(=O)oc3cc(O)c(O)cc23)nn1`, the pIC50 in the test with Caco-2 was 4.09 to 5.01; with K562, 4.09 to 5.01; in test [2] it was 4.34 to 4.44; in the test on HeLa [3], 4.09 to 5.01.

Consider `COc1cc(/C=C/C(=O)c2ccc(OCCCn3cc(CSC4=NCCS4)nn3)cc2)cc(OC)c1OC`, for which the negative logarithm of the IC50 (pIC50) in the test with MGC-803, in the test on HepG2 [1] and in the test on SK-N-SH was 4.98 to 5.82 each time.

On to `COc1ccc(/C=C/C(=O)c2cc(OC)c(OC)c(OC)c2)cc1OCc1cn(Cc2ccc(F)cc2)nn1`, for which the 50% growth inhibitory concentration (GI50) with HeLa [11], in the test on A549 [12], in the test with DU-145 [13] and in the test with HepG2 [14] was 1.3 to 8.2 µM throughout.

As for `O=C(Nc1cccc(-n2cc(Oc3ccc(-c4cc(-c5ccc(Oc6cn(-c7cccc(NC(=O)[C@@H]8CCCN8)c7)nn6)cc5)cc(-c5ccc(Oc6cn(-c7cccc(NC(=O)[C@@H]8CCCN8)c7)nn6)cc5)c4)cc3)nn2)c1)[C@@H]1CCCN1`, the pIC50 in the test with HCT-116 was 4.87 to 5.15; with MCF7 [6], 4.87 to 5.15; in the test with C2C12, less than 4.40.

On to `COc1ccc(S(=O)(=O)Nc2cccnc2Nc2ccc(O)cc2)cc1` [ABT-751], for which the pIC50 in the test on HEK293, with A549 [4], in the test with HT-29 and in the test on DU-145 [9] was 5.79 to 5.88 throughout.

Regarding `CS(=O)(=O)CCNCc1ccc(-c2ccc3ncnc(Nc4ccc(OCc5cccc(F)c5)c(Cl)c4)c3c2)o1` [LAPATINIB], the pIC50 in the test with KG-1a, with SK-BR-3 and in the test on SUM-159-PT was 4.70 to 5.01 throughout.

With `COC(=O)Nc1nc2cc(C(=O)c3cccs3)ccc2[nH]1` [NOCODAZOLE], the pIC50 was 5.78 to 5.86 in the test with HCT-116; 5.78 to 5.86 with MDA-MB-231 [7]; 5.51 to 5.66 in the test with HEK293; 5.51 to 5.86 with A549 [4]; 5.51 to 5.66 in the test with HT-29; 5.51 to 5.86 in the test with DU-145 [9]. The GI50 in the test on HeLa [11], in the test on MDA-MB-231 [15], in the test on DU-145 [13] and in the test on HepG2 [14] was 0.011 to 0.034 µM throughout.
